# What was measured:
# Beta-secretase 1 [1] = target: T1, Beta-secretase 1 (Homo sapiens, UniProt P56817); experiment: Inhibition of BACE1 (1 to 454 residues) (unknown origin) using APP derived polypeptide harboring Lys-Met/Asn-Leu mutation as substrate by FRET assay
# Beta-secretase 1 [2] = target: T1, Beta-secretase 1; experiment: Inhibition of BACE1 in human SKNBE2 cells transfected with APP695 protein assessed as reduction in amyloid beta (1 to 42) levels after 18 hrs by sandwich alphalisa assay; format: cell-based
# [3] = Drug metabolism in mouse liver microsomes at 1 uM after 15 mins in presence of NADPH by HPLC-MS/MS analysis; format: ADME, microsome; details: read-out: Drug metabolism
# [4] = Drug metabolism in human liver microsomes at 1 uM after 15 mins in presence of NADPH by HPLC-MS/MS analysis; format: ADME, microsome; details: read-out: Drug metabolism
# [5] = Dissociation constant, pKa of the compound at 25 degC by potentiometric titration assay; format: physicochemical
# Mus musculus [6] = experiment: Antialzheimer activity in CD1 Swiss specific pathogen free mouse assessed as reduction in amyloid beta (1 to 40) levels at 10 mg/kg, po measured after 2 hrs post dose by ELISA; format: functional; design: scale not given: the % may be the effect or the level left
# hERG (KCNH2) = hERG (KCNH2) (Homo sapiens, UniProt Q12809); experiment: Inhibition of human ERG expressed in HEK293 cells assessed as reduction in outward potassium current at 3 uM at holding potential was -80 mV after 5 mins by patch clamp assay; format: cell-based; details: HEK293 cells that express hERG
# Sequence of hERG (KCNH2) (Q12809 whole entry): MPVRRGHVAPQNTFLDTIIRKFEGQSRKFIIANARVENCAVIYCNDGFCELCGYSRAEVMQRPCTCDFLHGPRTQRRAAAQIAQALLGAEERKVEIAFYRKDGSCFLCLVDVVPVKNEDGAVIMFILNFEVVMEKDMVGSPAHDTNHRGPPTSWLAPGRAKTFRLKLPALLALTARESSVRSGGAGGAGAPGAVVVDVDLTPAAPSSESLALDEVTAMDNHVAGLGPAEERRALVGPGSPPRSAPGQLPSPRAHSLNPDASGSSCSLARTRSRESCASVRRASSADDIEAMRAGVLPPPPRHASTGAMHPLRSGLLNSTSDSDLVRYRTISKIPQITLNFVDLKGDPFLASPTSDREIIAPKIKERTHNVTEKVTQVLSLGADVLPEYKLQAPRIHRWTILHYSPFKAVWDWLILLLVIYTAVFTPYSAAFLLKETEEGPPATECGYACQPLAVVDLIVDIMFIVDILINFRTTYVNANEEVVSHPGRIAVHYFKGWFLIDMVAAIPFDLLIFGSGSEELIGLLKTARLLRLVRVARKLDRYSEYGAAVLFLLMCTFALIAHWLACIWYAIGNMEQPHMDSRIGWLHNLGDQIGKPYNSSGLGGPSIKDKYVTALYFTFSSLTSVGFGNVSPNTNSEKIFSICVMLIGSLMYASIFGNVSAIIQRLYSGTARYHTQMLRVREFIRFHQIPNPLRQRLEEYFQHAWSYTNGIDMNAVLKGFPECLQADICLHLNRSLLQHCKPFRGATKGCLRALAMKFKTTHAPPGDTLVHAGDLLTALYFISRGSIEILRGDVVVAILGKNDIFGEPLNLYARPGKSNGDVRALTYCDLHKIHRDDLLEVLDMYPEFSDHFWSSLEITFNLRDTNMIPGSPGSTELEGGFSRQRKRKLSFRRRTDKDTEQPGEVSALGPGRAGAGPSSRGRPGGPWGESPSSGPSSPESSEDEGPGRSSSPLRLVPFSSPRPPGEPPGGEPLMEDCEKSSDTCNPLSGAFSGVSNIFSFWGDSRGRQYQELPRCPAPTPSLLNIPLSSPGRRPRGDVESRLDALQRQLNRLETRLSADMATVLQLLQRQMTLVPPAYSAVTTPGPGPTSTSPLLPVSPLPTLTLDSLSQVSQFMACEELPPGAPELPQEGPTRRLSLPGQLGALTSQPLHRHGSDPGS
# [7] = Ratio of total drug level in brain to plasma of in CD1 Swiss specific pathogen free mouse at 10 mg/kg, po after 4 hrs; format: ADME, organism-based
# HepG2 = experiment: Cytotoxicity against human HepG2 cells assessed as effect on cell health indicators after 72 hrs by automated fluorescence microscopy based high content screening based assay; format: ADME; details: hepg2, 72 h
# Mus musculus [8] = experiment: Antialzheimer activity in CD1 Swiss specific pathogen free mouse assessed as reduction in amyloid beta (1 to 40) levels at 10 mg/kg, po measured after 4 hrs post dose by ELISA; format: functional; design: scale not given: the % may be the effect or the level left
# [9] = target: Voltage-gated inwardly rectifying potassium channel KCNH2 (Homo sapiens, UniProt Q12809); experiment: Inhibition of human ERG expressed in HEK293 cell membranes by radioligand binding assay
# Sequence of Voltage-gated inwardly rectifying potassium channel KCNH2 (Q12809 whole entry): as above
# [10] = test system: MDR1 (P-gp) (Homo sapiens); experiment: Apparent permeability across apical to basolateral side in pig LLC cells transfected with human MDR1 at 5 uM in absence of elacridar by LC-MS/MS analysis; details: LLC-PK1
# [11] = Fraction unbound in mouse plasma at 5 uM after 4.5 hrs by HPLC-MS/MS method based rapid equilibrium dialysis; format: ADME, cell-free
# [12] = Fraction unbound in rat brain at 5 uM after 5 hrs by HPLC-MS/MS method based rapid equilibrium dialysis; format: ADME, tissue-based
# Mus musculus [13] = experiment: Antialzheimer activity in CD1 Swiss specific pathogen free mouse assessed as reduction in amyloid beta (1 to 40) levels at 10 mg/kg, po measured after 1 hr post dose by ELISA; format: functional; design: scale not given: the % may be the effect or the level left
# [14] = Ratio of total unbound drug level in brain to plasma of in CD1 Swiss specific pathogen free mouse at 10 mg/kg, po after 4 hrs; format: ADME, organism-based; details: read-out: K(p,uu,brain)
# TK6 [15] = experiment: Genotoxicity in human TK6 cells at 500 ug/ml after 24 hrs in presence of rat liver S9 fraction by micronucleus assay; format: toxicity, cell-based; details: s9, 24 h
# TK6 [16] = experiment: Genotoxicity in human TK6 cells up to […] after 24 hrs in absence of rat liver S9 fraction by micronucleus assay; format: toxicity, cell-based; details: tk6, 24 h
# [17] = Drug uptake in mouse brain at 30 mg/kg, po measured at 2 to 4 hrs; format: ADME, organism-based; details: in vivo
# [18] = Drug uptake in mouse brain at 10 mg/kg, po measured at 2 to 4 hrs; format: ADME, organism-based; details: in vivo
# [19] = Plasma concentration in mouse at 10 mg/kg, po after 4 hrs; format: ADME, organism-based
# [20] = Drug metabolism in mouse liver hepatocytes at 1 uM after 60 mins in presence of NADPH by HPLC-MS/MS analysis; format: ADME, cell-based, Hepatocyte; details: read-out: Drug metabolism
# Canis familiaris = experiment: Antialzheimer activity in po dosed Beagle dog assessed as reduction in amyloid beta (1 to 40) levels measured after 1 hr post dose by ELISA; format: functional, organism-based, Canis lupus familiaris
# Cavia porcellus = experiment: Cardiotoxicity in anesthetized guinea pigs assessed as drug level causing QTcB prolongation dosed up to 10 mg/kg, iv administered over a period of 5 min at 15 min interval by ECG analysis; format: toxicity, organism-based; details: guinea pig, in vivo
# [21] = Cmax in anesthetized guinea pig; format: ADME, organism-based, Cavia porcellus; details: in vivo
# T1 sequence (P56817 whole entry, the tested form may be a part): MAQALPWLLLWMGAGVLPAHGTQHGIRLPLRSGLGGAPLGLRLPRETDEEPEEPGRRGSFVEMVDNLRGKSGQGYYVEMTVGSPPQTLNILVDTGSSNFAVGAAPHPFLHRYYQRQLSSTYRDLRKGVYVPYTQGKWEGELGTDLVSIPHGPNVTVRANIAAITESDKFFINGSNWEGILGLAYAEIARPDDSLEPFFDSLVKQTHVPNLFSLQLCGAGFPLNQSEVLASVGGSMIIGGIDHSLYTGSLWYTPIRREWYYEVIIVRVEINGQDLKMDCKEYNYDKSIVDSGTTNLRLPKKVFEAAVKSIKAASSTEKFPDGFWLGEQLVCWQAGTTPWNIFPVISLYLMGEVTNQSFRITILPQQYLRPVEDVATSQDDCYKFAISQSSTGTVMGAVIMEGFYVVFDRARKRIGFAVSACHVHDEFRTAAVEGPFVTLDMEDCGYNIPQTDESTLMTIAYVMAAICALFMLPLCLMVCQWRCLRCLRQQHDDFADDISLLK
smiles,measurement,setting,value
COCCOc1cnc(C(=O)Nc2ccc(F)c([C@@]3(C)N=C(N)CO[C@H]3C(F)(F)F)c2)cn1,IC50,Beta-secretase 1 [1],40.7 nM
same,IC50,Beta-secretase 1 [2],12.5 nM
same,"metabolised at 0.25 h, 1 µM",[3],59%
same,"metabolised at 0.25 h, 1 µM",[4],56%
C[C@]1(c2cc(NC(=O)c3cnc(OC(F)(F)C(F)(F)F)cn3)ccc2F)N=C(N)CO[C@H]1C(F)(F)F,IC50,Beta-secretase 1 [1],30.2 nM
same,IC50,Beta-secretase 1 [2],49 nM
COc1cnc(C(=O)Nc2ccc(F)c([C@@]3(C)N=C(N)CO[C@H]3C(F)(F)F)c2)cn1,pKa,[5],7.8
same,"metabolised at 0.25 h, 1 µM",[3],19%
same,Activity,Mus musculus [6],37%
same,"inhibition at 5 min, 3 µM",hERG (KCNH2),19%
same,"metabolised at 0.25 h, 1 µM",[4],2%
same,Kp at 4 h,[7],1.81
same,MTC,HepG2,15.6 µM
same,Activity,Mus musculus [8],29%
same,IC50,[9],> 10000 nM
same,Papp A→B at 5 µM,[10],13.7 ×10⁻⁶ cm/s
same,"fraction unbound at 4.5 h, 5 µM",[11],0.155
same,"fraction unbound at 5 h, 5 µM",[12],0.02
same,Activity,Mus musculus [13],23%
same,Kp uu at 4 h,[14],0.23
C[C@]1(c2cc(N)ccc2F)N=C(N)CO[C@H]1C(F)(F)F,Activity,TK6 [15],Non-Toxic
same,Activity,TK6 [16],Non-Toxic
COc1cnc(C(=O)Nc2ccc(F)c([C@@]3(C)N=C(N)COC3=C(F)F)c2)cn1,IC50,Beta-secretase 1 [1],151 nM
same,pKa,[5],7.9
same,IC50,Beta-secretase 1 [2],35.1 nM
same,Activity,Mus musculus [6],6%
same,Kp at 4 h,[7],0.97
same,Activity,Mus musculus [8],7%
same,IC50,[9],> 10000 nM
same,Papp A→B at 5 µM,[10],8.63 ×10⁻⁶ cm/s
same,"fraction unbound at 4.5 h, 5 µM",[11],0.146
same,"fraction unbound at 5 h, 5 µM",[12],0.017
same,Kp uu at 4 h,[14],0.11
C[C@]1(c2cc(NC(=O)c3ncc(C#N)cc3F)ccc2F)N=C(N)CO[C@@H]1F,IC50,Beta-secretase 1 [1],18.4 nM
same,IC50,Beta-secretase 1 [2],12.2 nM
same,"metabolised at 0.25 h, 1 µM",[3],19%
same,"inhibition at 5 min, 3 µM",hERG (KCNH2),24%
same,"metabolised at 0.25 h, 1 µM",[4],11%
same,IC50,[9],> 10000 nM
same,Papp A→B at 5 µM,[10],1.05 ×10⁻⁶ cm/s
same,Drug uptake,[17],Not Active
C[C@@]1(c2cc(N/C=C/c3ccc(C#N)cn3)ccc2F)COCC(N)=N1,IC50,Beta-secretase 1 [1],2340 nM
same,IC50,Beta-secretase 1 [2],251 nM
C[C@]1(c2cc(NC(=O)c3cnc(OCC(F)(F)F)cn3)ccc2F)N=C(N)CO[C@H]1C(F)(F)F,IC50,Beta-secretase 1 [1],24.5 nM
same,IC50,Beta-secretase 1 [2],20.9 nM
C[C@]1(c2cc(NC(=O)c3cnc(N4CCC4)cn3)ccc2F)N=C(N)CO[C@H]1C(F)(F)F,IC50,Beta-secretase 1 [1],457 nM
same,IC50,Beta-secretase 1 [2],115 nM
C[C@]1(c2cc(NC(=O)c3cnc(NC4CC4)cn3)ccc2F)N=C(N)CO[C@H]1C(F)(F)F,IC50,Beta-secretase 1 [1],3020 nM
same,IC50,Beta-secretase 1 [2],603 nM
C[C@]1(c2cc(NC(=O)c3cnc(NCC(F)(F)F)cn3)ccc2F)N=C(N)CO[C@H]1C(F)(F)F,IC50,Beta-secretase 1 [1],> 10000 nM
same,IC50,Beta-secretase 1 [2],4500 nM
C[C@]1(c2cc(NC(=O)c3ncc(C#N)cc3Cl)ccc2F)N=C(N)CO[C@@H]1F,Drug uptake,[18],Not Active
same,concentration at 4 h,[19],38 ng/mL
same,IC50,Beta-secretase 1 [1],10.7 nM
same,IC50,Beta-secretase 1 [2],15.5 nM
same,"metabolised at 0.25 h, 1 µM",[3],0%
same,"inhibition at 5 min, 3 µM",hERG (KCNH2),19%
same,"metabolised at 0.25 h, 1 µM",[4],1%
same,"metabolised at 1 h, 1 µM",[20],55%
same,IC50,[9],> 10000 nM
same,Papp A→B at 5 µM,[10],3.06 ×10⁻⁶ cm/s
C[C@]1(c2cc(NC(=O)c3ncc(C#N)cc3Cl)ccc2F)N=C(N)CO[C@H]1C(F)(F)F,"metabolised at 0.25 h, 1 µM",[3],38%
same,"inhibition at 5 min, 3 µM",hERG (KCNH2),13%
same,"metabolised at 0.25 h, 1 µM",[4],38%
C[C@]1(c2cc(NC(=O)c3ccc(C#N)cn3)ccc2F)N=C(N)CO[C@@H]1F,fEC50,Canis familiaris,0.023 µM
same,LOAEL,Cavia porcellus,475 ng/mL
same,fLOAEL,Cavia porcellus,0.55 µM
same,fNOAEL,Cavia porcellus,0.2 µM
same,"metabolised at 1 h, 1 µM",[20],0%
same,Cmax,[21],475 ng/mL
same,IC50,[9],8000 nM
C[C@]1(c2cc(NC(=O)c3ccc(Cl)cn3)ccc2F)N=C(N)CO[C@H]1C(F)(F)F,"metabolised at 0.25 h, 1 µM",[3],48%
same,"inhibition at 5 min, 3 µM",hERG (KCNH2),27%
same,"metabolised at 0.25 h, 1 µM",[4],0%
same,MTC,HepG2,13.6 µM
C[C@]1(c2cc(-c3cncnc3)ccc2F)N=C(N)CO[C@H]1C(F)(F)F (racemic),IC50,Beta-secretase 1 [1],1860 nM
same,IC50,Beta-secretase 1 [2],631 nM
same,"metabolised at 0.25 h, 1 µM",[3],51%
same,"metabolised at 0.25 h, 1 µM",[4],7%
COc1cnc(C(=O)Nc2ccc(F)c([C@@]3(C)N=C(N)CO[C@@H]3F)c2)cn1,Activity,Mus musculus [6],65%
same,Kp at 4 h,[7],0.6
same,IC50,[9],> 10000 nM
same,Activity,Mus musculus [13],39%
same,Kp uu at 4 h,[14],0.09
COc1cnc(C(=O)Nc2ccc(F)c([C@@]3(C)N=C(N)CO[C@H]3C(F)F)c2)cn1,IC50,Beta-secretase 1 [1],11.4 nM
same,pKa,[5],8.4
same,IC50,Beta-secretase 1 [2],4.9 nM
same,Activity,Mus musculus [6],38%
same,"inhibition at 5 min, 3 µM",hERG (KCNH2),24%
same,Kp at 4 h,[7],0.4
same,Activity,Mus musculus [8],40%
same,IC50,[9],> 10000 nM
same,Papp A→B at 5 µM,[10],4.8 ×10⁻⁶ cm/s
same,"fraction unbound at 4.5 h, 5 µM",[11],0.279
same,"fraction unbound at 5 h, 5 µM",[12],0.047
same,Activity,Mus musculus [13],11%
same,Kp uu at 4 h,[14],0.07
